The text below walks through data of patent publication US20180194799A1, “BETUIN DERIVATIVES FOR PREVENTING OR TREATING HIV INFECTIONS” (GLAXOSMITHKLINE INTELLECTUAL PROPERTY (NO.2) LIMITED, priority 2015, published 2018).

Structures can show the parent of a compound that is named as a salt.

The subject of test [1] is V370A. Description: MT4 Cell Antiviral Assay, V370A. It counts as cell-based, HIV-1. To be noted: Human immunodeficiency virus 1, MT4, 120 h, read-out: EC50 V370A (nM).
Test [2] concerns NL4-3 wt. Description: MT4 Cell Antiviral Assay, NL4-3 wt. It counts as cell-based, HIV-1. The conditions noted are these: Human immunodeficiency virus 1, NL43, 120 h; HIV MT4 Antiviral Cell Assay of Example 17, 5 days incubation.
Test [3] deals with HIV. To be noted: cited from earlier work.
Test [4] deals with HIV-1 (strain IIIB). Description: MT4 Cell Antiviral Assay (general statements and standard). The format is cell-based. The conditions noted are these: Human immunodeficiency virus 1, IIIB; control and standard in every assay, propidium iodide readout, MT4 cells; read-out: expected range of IC50 values. As to the method: Antiviral HIV activity and compound-induced cytotoxicity were measured in parallel by means of a propidium iodide based procedure in the human T-cell lymphotropic virus transformed cell line MT4. Aliquots of the test compounds were serially diluted in medium (RPMI 1640, 10% fetal calf serum (FCS), and gentamycin) in 96-well plates (Costar 3598) using a Cetus Pro/Pette. Exponentially growing MT4 cells were harvested and centrifuged at 1000 rpm for 10 min in a Jouan centrifuge (model CR 4 12). Cell pellets were resuspended in fresh medium (RPMI 1640, 20% FCS, 20% IL-2, and gentamycin) to a density of 5×10^5 cells/ml. Cell aliquots were infected by the addition of HIV-1 (strain IIIB) diluted to give a viral multiplicity of infection of 100×TCID50. […]
For propidium iodide readout, 27 μl of 5% Nonidet-40 was added to each well of the incubation plate. […]
For MTS readout, 20 μl CellTiter 96 AQ One Solution reagent (Promega #G3582) was added to each well. At 75 minutes following the addition of MTS reagent, absorbance was read at 492 nm using a Tecan Sunrise 96-well plate reader. […]
For each assay plate, the results (relative fluorescence units, rfU, or OD values) of wells containing uninfected cells or infected cells with no compound were averaged, respectively. […] Percent of cells remaining is determined by the following formula: […]

As to `CC(C)C1=C2[C@H]3CC[C@@H]4[C@@]5(C)CC=C(c6ccc(C(=O)O)cc6)C(C)(C)C5CC[C@@]4(C)[C@]3(C)CC[C@@]2([C@@H](O)CN(CC2CCC2)C(=O)CN(C)C)CC1=O` (stereo in doubt) [Example 6, 4-((3aR,5aR,5bR,7aR,11aS,11bR,13aS)-3a-((R)-2-(N-(cyclobutylmethyl)-2-(dimethylamino)acetamido)-1-hydroxyethyl)-1-isopropyl-5a,5b,8,8,11a-pentamethyl-2-oxo-3,3a,4,5,5a,5b,6,7,7a,8,11,11a,11b,12,13,13a-hexadecahydro-2H-cyclopenta[a]chrysen-9-yl)benzoic acid hydrochloride], the EC50 was determined as 8.9 nM in test [1] and 0.003 µM in test [2].

For `C=C(C)[C@@H]1CC[C@]2(C(=O)O)CC[C@]3(C)[C@H](CC[C@@H]4[C@@]5(C)CC[C@H](OC(=O)CC(C)(C)C(=O)O)C(C)(C)[C@@H]5CC[C@]43C)[C@@H]12` [Bevirimat], in test [3] (patients with trough levels >=20 μg/mL and without baseline Gag polymorphisms at Q369, V370 or T371), the “HIV viral load reduction (mean)” value is on record as 1.3 log10/mL. Further, the “viral load reduction versus patients without Gag polymorphisms” value in test [3] (users with Gag polymorphisms at Q369, V370 or T371) was “significantly lower load reductions”.

Consider `CC(C)C1=C2[C@H]3CC[C@@H]4[C@@]5(C)CC=C(c6ccc(C(=O)O)cc6)C(C)(C)C5CC[C@@]4(C)[C@]3(C)CC[C@@]2([C@@H](O)CN(CC2CCC2)C(=O)CN2CCCC2)CC1=O` (stereo in doubt) [Example 5, 4-((3aR,5aR,5bR,7aR,11aS,11bR,13aS)-3a-((R)-2-(N-(cyclobutylmethyl)-2-(pyrrolidin-1-yl)acetamido)-1-hydroxyethyl)-1-isopropyl-5a,5b,8,8,11a-pentamethyl-2-oxo-3,3a,4,5,5a,5b,6,7,7a,8,11,11a,11b,12,13,13a-hexadecahydro-2H-cyclopenta[a]chrysen-9-yl)benzoic acid hydrochloride], for which the EC50 in test [1] was 3.8 nM; in test [2] it was 0.0354 µM.

In the case of `CC(C)C1=C2[C@H]3CC[C@@H]4[C@@]5(C)CC=C(c6ccc(C(=O)O)cc6)C(C)(C)[C@@H]5CC[C@@]4(C)[C@]3(C)CC[C@@]2([C@@H](O)CN(CC2CC2)C(=O)CN(C)C)CC1=O` [Example 1, 4-((3aR,5aR,5bR,7aR,11aS,11bR,13aS)-3a-((R)-2-(N-(cyclopropylmethyl)-2-(dimethylamino)acetamido)-1-hydroxyethyl)-1-isopropyl-5a,5b,8,8,11a-pentamethyl-2-oxo-3,3a,4,5,5a,5b,6,7,7a,8,11,11a,11b,12,13,13a-hexadecahydro-2H-cyclopenta[a]chrysen-9-yl)benzoic acid], the 50% effective concentration (EC50) in test [1] was found to be 17 nM; in test [2] it was 0.0037 µM.

As for `CC(C)C1=C2[C@H]3CC[C@@H]4[C@@]5(C)CC=C(c6ccc(C(=O)O)cc6)C(C)(C)[C@@H]5CC[C@@]4(C)[C@]3(C)CC[C@@]2([C@@H](O)CNCC2CC2)CC1=O` [Example 9, 4-((3aR,5aR,5bR,7aR,11aS,11bR,13aS)-3a-((R)-2-((cyclopropylmethyl)amino)-1-hydroxyethyl)-1-isopropyl-5a,5b,8,8,11a-pentamethyl-2-oxo-3,3a,4,5,5a,5b,6,7,7a,8,11,11a,11b,12,13,13a-hexadecahydro-2H-cyclopenta[a]chrysen-9-yl)benzoic acid hydrochloride], the EC50 in test [1] came to 10000 nM; in test [2], 0.0692 µM.

With `COCC(=O)N(CC1CC1)C[C@H](O)[C@@]12CC[C@]3(C)[C@H](CC[C@@H]4[C@@]5(C)CC=C(c6ccc(C(=O)O)cc6)C(C)(C)C5CC[C@]43C)C1=C(C(C)C)C(=O)C2` (stereo in doubt) [Example 2, 4-((3aR,5aR,5bR,7aR,11aS,11bR,13aS)-3a-((R)-2-(N-(cyclopropylmethyl)-2-methoxyacetamido)-1-hydroxyethyl)-1-isopropyl-5a,5b,8,8,11a-pentamethyl-2-oxo-3,3a,4,5,5a,5b,6,7,7a,8,11,11a,11b,12,13,13a-hexadecahydro-2H-cyclopenta[a]chrysen-9-yl)benzoic acid], the EC50 in test [1] came to 389 nM; in test [2], 0.0155 µM.

On to `CC(C)C1=C2[C@H]3CC[C@@H]4[C@@]5(C)CC=C(c6ccc(C(=O)O)cc6)C(C)(C)C5CC[C@@]4(C)[C@]3(C)CC[C@@]2([C@@H](O)CN(CC2CC2)C(=O)CN2CCCC2=O)CC1=O` (stereo in doubt) [Example 4, 4-((3aR,5aR,5bR,7aR,11aS,11bR,13aS)-3a-((R)-2-(N-(cyclopropylmethyl)-2-(2-oxopyrrolidin-1-yl)acetamido)-1-hydroxyethyl)-1-isopropyl-5a,5b,8,8,11a-pentamethyl-2-oxo-3,3a,4,5,5a,5b,6,7,7a,8,11,11a,11b,12,13,13a-hexadecahydro-2H-cyclopenta[a]chrysen-9-yl)benzoic acid], for which the EC50 is 1020 nM in test [1] and 0.0102 µM in test [2].

For `COCC(=O)N(CC1CC1)C[C@H](O)[C@@]12CC[C@]3(C)[C@H](CC[C@@H]4[C@@]5(C)CC=C(c6cn(CC(=O)O)nn6)C(C)(C)[C@@H]5CC[C@]43C)C1=C(C(C)C)C(=O)C2` [Example 12, 2-(4-((3aR,5aR,5bR,7aR,11aS,11bR,13aS)-3a-((R)-2-(N-(cyclopropylmethyl)-2-methoxyacetamido)-1-hydroxyethyl)-1-isopropyl-5a,5b,8,8,11a-pentamethyl-2-oxo-3,3a,4,5,5a,5b,6,7,7a,8,11,11a,11b,12,13,13a-hexadecahydro-2H-cyclopenta[a]chrysen-9-yl)-1H-1,2,3-triazol-1-yl)acetic acid hydrochloride], the EC50 in test [1] turned out to be 15500 nM; in test [2], 20.4 µM.

On to `CC(C)C1=C2[C@H]3CC[C@@H]4[C@@]5(C)CC=C(c6ccc(C(=O)O)cc6)C(C)(C)C5CC[C@@]4(C)[C@]3(C)CC[C@@]2([C@@H](O)CN(CC2CC2)C(=O)CN2CCCC2)CC1=O` (stereo in doubt) [Example 3, 4-((3aR,5aR,5bR,7aR,11aS,11bR,13aS)-3a-((R)-2-(N-(cyclopropylmethyl)-2-(pyrrolidin-1-yl)acetamido)-1-hydroxyethyl)-1-isopropyl-5a,5b,8,8,11a-pentamethyl-2-oxo-3,3a,4,5,5a,5b,6,7,7a,8,11,11a,11b,12,13,13a-hexadecahydro-2H-cyclopenta[a]chrysen-9-yl)benzoic acid hydrochloride], for which the figures for the EC50 in test [1] and in test [2] were 6.5 nM and 0.0028 µM, respectively.

For the compound `CC(=O)N(CC1CC1)C[C@H](O)[C@@]12CC[C@]3(C)[C@H](CC[C@@H]4[C@@]5(C)CC=C(c6ccc(C(=O)O)cc6)C(C)(C)[C@@H]5CC[C@]43C)C1=C(C(C)C)C(=O)C2` [Example 11, 4-((3aR,5aR,5bR,7aR,11aS,11bR,13aS)-3a-((R)-2-(N-(cyclopropylmethyl)acetamido)-1-hydroxyethyl)-1-isopropyl-5a,5b,8,8,11a-pentamethyl-2-oxo-3,3a,4,5,5a,5b,6,7,7a,8,11,11a,11b,12,13,13a-hexadecahydro-2H-cyclopenta[a]chrysen-9-yl)benzoic acid], the figures for the concentration giving a half-maximal response (EC50) in test [1] and in test [2] were 24.5 nM and 0.0398 µM, respectively.

As for `Cc1cn([C@H]2C[C@H](N=[N+]=[N-])[C@@H](CO)O2)c(=O)[nH]c1=O` [3′-azido-3′-deoxythymidine], the IC50 in test [4] is 0.04 to 0.12 µM.

`CC(C)C1=C2[C@H]3CC[C@@H]4[C@@]5(C)CC=C(c6ccc(C(=O)O)cc6)C(C)(C)[C@@H]5CC[C@@]4(C)[C@]3(C)CC[C@@]2([C@@H](O)CN(CCN(C)C)CC2CC2)CC1=O` [Example 10, 4-((3aR,5aR,5bR,7aR,11aS,11bR,13aS)-3a-((R)-2-((cyclopropylmethyl)(2-(dimethylamino)ethyl)amino)-1-hydroxyethyl)-1-isopropyl-5a,5b,8,8,11a-pentamethyl-2-oxo-3,3a,4,5,5a,5b,6,7,7a,8,11,11a,11b,12,13,13a-hexadecahydro-2H-cyclopenta[a]chrysen-9-yl)benzoic acid hydrochloride]: the concentration for a half-maximal effect (EC50) in test [1] was 7.9 nM; in test [2], 0.0078 µM.
